Experimental data taken from US20250171459A1, “2-METHYL-4',5'-DIHYDROSPIRO[PIPERIDINE-4,7'-THIENO[2,3-C]PYRAN] DERIVATIVES AS INHIBITORS OF APOL1 AND METHODS OF USING SAME” (Vertex Pharmaceuticals Incorporated, priority 2022, published 2025).

Molecular target: T1, APOL1 (Homo sapiens, UniProt O14791)
T1 sequence (O14791 1-398 S342G/I384M): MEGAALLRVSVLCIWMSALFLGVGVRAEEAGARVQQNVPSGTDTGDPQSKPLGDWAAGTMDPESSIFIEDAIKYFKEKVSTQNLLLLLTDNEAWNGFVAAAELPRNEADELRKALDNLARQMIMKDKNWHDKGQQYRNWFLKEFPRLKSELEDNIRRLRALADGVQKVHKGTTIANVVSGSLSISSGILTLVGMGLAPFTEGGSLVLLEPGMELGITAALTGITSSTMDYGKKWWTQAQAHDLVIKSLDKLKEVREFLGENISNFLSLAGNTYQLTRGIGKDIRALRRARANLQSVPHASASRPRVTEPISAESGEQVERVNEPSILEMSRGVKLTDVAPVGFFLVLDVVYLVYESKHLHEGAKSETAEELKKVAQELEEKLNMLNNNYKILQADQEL
Experiment: MultiTox-Fluor Multiplex Cytotoxicity Assay in tet-inducible APOL1 T-REx-HEK293 cells (cell rescue, ratio of dead to live cells)
Assay type: cell-based
Conditions: tet-inducible transgenic APOL1 T-REx-HEK293 cell lines, 50 ng/mL tet, 24 hours; read-out: IP50 (i.e., IC50 for cell proliferation)
In short: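 T-REx-HEK293 cells with tet-inducible APOL1 were treated with compound (10 μM top, 10-point 3-fold dilution, duplicate) plus 50 ng/mL tetracycline for 24 h at 37° C, in DMEM with 2% tet-free FBS. MultiTox-Fluor protease signals gave a dead/live ratio, normalized to no tet (100% viability) and tet alone (0%).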

Compound | IC50
CCCNC(=O)c1c(C(F)(F)F)sc2c1CCO[C@@]21CCN(Cc2cn(CCS(C)(=O)=O)nn2)[C@@H](C)C1 [Compound 1007, (2′S,7R)-2′-methyl-1′-[[1-(2-methylsulfonylethyl)triazol-4-yl]methyl]-N-propyl-2-(trifluoromethyl)spiro[4,5-dihydrothieno[2,3-c]pyran-7,4′-piperidine]-3-carboxamide] | 500 to 1000 nM
C[C@H]1C[C@@]2(CCN1Cc1cn(CCS(C)(=O)=O)nn1)OCCc1c2sc(C(F)(F)F)c1C(=O)NCC1CC1 [Compound 1008] | 500 to 1000 nM
C[C@H]1C[C@@]2(CCN1Cc1cn(CCS(C)(=O)=O)nn1)OCCc1c2sc(C(F)(F)F)c1C(=O)NCC(F)F [Compound 1009] | 500 to 1000 nM
C[C@H]1C[C@@]2(CCN1Cc1cn(CCS(C)(=O)=O)nn1)OCCc1c2sc(C(F)(F)F)c1Cl [Compound 1010, (2′S, 7R)-3-chloro-2′-methyl-1′-[[1-(2-methylsulfonylethyl)triazol-4-yl]methyl]-2-(trifluoromethyl)spiro[4,5-dihydrothieno[2,3-c]pyran-7,4′-piperidine]] | < 100 nM
C[C@H]1C[C@@]2(CCN1Cc1cnn(CCS(C)(=O)=O)c1)OCCc1cc(C(F)(F)C(F)F)sc12 [Compound 1011, (2′S, 7R)-2′-methyl-1′-[[1-(2-methylsulfonylethyl)pyrazol-4-yl]methyl]-2-(1,1,2,2-tetrafluoroethyl)spiro[4,5-dihydrothieno[2,3-c]pyran-7,4′-piperidine]] | < 100 nM
C[C@H]1C[C@@]2(CCN1Cc1cnn(CCS(C)(=O)=O)c1)OCC(O)c1cc(C(F)(F)C(F)F)sc12 (stereo partly drawn) [Compound 1012, (2′S, 7R)-2′-methyl-1′-[[1-(2-methylsulfonylethyl)pyrazol-4-yl]methyl]-2-(1,1,2,2-tetrafluoroethyl)spiro[4,5-dihydrothieno[2,3-c]pyran-7,4′-piperidine]-4-ol] | < 100 nM
[2H]C(OCC)c1cc2c(s1)[C@]1(CCN(Cc3cnn(CCS(C)(=O)=O)c3)[C@@H](C)C1)OCC2 (stereo partly drawn) [Compound 1015, (2′S, 7R)-2-[deuterio(ethoxy)methyl]-2′-methyl-1′-[[1-(2-methylsulfonylethyl)pyrazol-4-yl]methyl]spiro[4,5-dihydrothieno[2,3-c]pyran-7,4′-piperidine]] | < 100 nM
C[C@H]1C[C@@]2(CCN1Cc1cnn(CCS(C)(=O)=O)c1)OCCc1cc(CO)sc12 [Compound 1016, [(2′S,7R)-2′-methyl-1′-[[1-(2-methylsulfonylethyl)pyrazol-4-yl]methyl]spiro[4,5-dihydrothieno[2,3-c]pyran-7,4′-piperidine]-2-yl]methanol] | 100 to 500 nM
COCc1cc2c(s1)[C@]1(CCN(Cc3cnn(CCS(C)(=O)=O)c3)[C@@H](C)C1)OCC2 [Compound 1017, (2′S, 7R)-2-(methoxymethyl)-2′-methyl-1′-[[1-(2-methylsulfonylethyl)pyrazol-4-yl]methyl]spiro[4,5-dihydrothieno[2,3-c]pyran-7,4′-piperidine]] | 100 to 500 nM
C[C@H]1C[C@@]2(CCN1Cc1cnn(C)c1)OCCc1cc(CO)sc12 [Compound 1018, [(2′S, 7R)-2′-methyl-1′-[(1-methylpyrazol-4-yl)methyl]spiro[4,5-dihydrothieno[2,3-c]pyran-7,4′-piperidine]-2-yl]methanol] | 100 to 500 nM
C[C@H]1C[C@@]2(CCN1Cc1cn(CCS(C)(=O)=O)nn1)OCCc1cc(CO)sc12 [Compound 1019, [(2′S, 7R)-2′-methyl-1′-[[1-(2-methylsulfonylethyl)triazol-4-yl]methyl]spiro[4,5-dihydrothieno[2,3-c]pyran-7,4′-piperidine]-2-yl]methanol] | 500 to 1000 nM
C[C@H]1C[C@@]2(CCN1Cc1cnn(C)c1)OCCc1cc(C(C)(C)C)sc12 [Compound 1020, (2S,4R)-2′-(tert-butyl)-2-methyl-1-((1-methyl-1H-pyrazol-4-yl)methyl)-4′,5′-dihydrospiro[piperidine-4,7′-thieno[2,3-c]pyran]] | 500 to 1000 nM
C[C@H]1CC2(CCN1Cc1cnn(C)c1)OC1CCCCC1c1cc(Cl)sc12 (stereo partly drawn) [Compound 1021, (2S)-2′-chloro-2-methyl-1-((1-methyl-1H-pyrazol-4-yl)methyl)-5a′,6′,7′,8′,9′,9a′-hexahydrospiro[piperidine-4,4′-thieno[2,3-c]chromene]] | 100 to 500 nM
C[C@H]1CC2(CCN1Cc1cnn(CCS(C)(=O)=O)c1)OCC1(CC1)c1cc(Cl)sc12 (some centres unmarked) [Compound 1022, (2″S)-2′-chloro-2″-methyl-1″-((1-(2-(methylsulfonyl)ethyl)-1H-pyrazol-4-yl)methyl)-5′H-dispiro[cyclopropane-1,4′-thieno[2,3-c]pyran-7′,4″-piperidine]] | < 100 nM
C[C@H]1CC2(CCN1Cc1cnn(CCS(C)(=O)=O)c1)OCCc1c2sc2ccccc12 (stereo partly drawn) [Compound 1023, (2′S)-2′-methyl-1′-((1-(2-(methylsulfonyl)ethyl)-1H-pyrazol-4-yl)methyl)-3,4-dihydrospiro[benzo[4,5]thieno[2,3-c]pyran-1,4′-piperidine]] | 500 to 1000 nM
Cc1cc2c(s1)[C@]1(CCN(Cc3cn[nH]c3)[C@@H](C)C1)OCC2 [Compound 1024, (2′S, 7R)-2,2′-dimethyl-1′-(1H-pyrazol-4-ylmethyl)spiro[4,5-dihydrothieno[2,3-c]pyran-7,4′-piperidine]] | < 100 nM
Cc1cc2c(s1)[C@]1(CCN(Cc3cnc(NC(C)(C)CO)nc3)[C@@H](C)C1)OCC2 [Compound 1025] | < 100 nM
Cc1cc2c(s1)[C@]1(CCN(Cc3cnn(CCS(C)(=O)=O)c3)[C@@H](C)C1)OCC2 [Compound 1026] | < 100 nM
Cc1cc2c(s1)[C@]1(CCN(Cc3cnn(CCO)c3)[C@@H](C)C1)OCC2 [Compound 1027, 2-[4-[[(2′S, 7R)-2,2′-dimethylspiro[4,5-dihydrothieno[2,3-c]pyran-7,4′-piperidine]-1′-yl]methyl]pyrazol-1-yl]ethanol] | < 100 nM
Cc1cc2c(s1)[C@]1(CCN(Cc3cnn(CC(C)(CO)CO)c3)[C@@H](C)C1)OCC2 [Compound 1028, 2-[[4-[[(2′S, 7R)-2,2′-dimethylspiro[4,5-dihydrothieno[2,3-c]pyran-7,4′-piperidine]-1′-yl]methyl]pyrazol-1-yl]methyl]-2-methyl-propane-1,3-diol] | < 100 nM
Cc1cc2c(s1)C1(CCN(Cc3cn(CCS(C)(=O)=O)nn3)[C@@H](C)C1)OCC2 (stereo partly drawn) [Compound 1029, (2′S)-2,2′-dimethyl-1′-[[1-(2-methylsulfonylethyl)triazol-4-yl]methyl]spiro[4,5-dihydrothieno[2,3-c]pyran-7,4′-piperidine]] | 100 to 500 nM
Cc1cc2c(s1)[C@]1(CCN(Cc3cnn(CCS(C)(=O)=O)c3)[C@@H](C)C1)OCC2(O)C(F)F (stereo partly drawn) [Compound 1031, (2′S, 7R)-4-(difluoromethyl)-2,2′-dimethyl-1′-[[1-(2-methylsulfonylethyl)pyrazol-4-yl]methyl]spiro[5H-thieno[2,3-c]pyran-7,4′-piperidine]-4-ol] | < 100 nM
C[C@H]1C[C@@]2(CCN1Cc1cnn(CCS(C)(=O)=O)c1)OCCc1cc(CC(F)(F)F)sc12 [Compound 1032, (2′S, 7R)-2′-methyl-1′-[[1-(2-methylsulfonylethyl)pyrazol-4-yl]methyl]-2-(2,2,2-trifluoroethyl)spiro[4,5-dihydrothieno[2,3-c]pyran-7,4′-piperidine]] | < 100 nM
C[C@H]1C[C@@]2(CCN1Cc1cnn(CCS(C)(=O)=O)c1)OCCc1cc(C3CCC3)sc12 [Compound 1033, (2′S,7R)-2-cyclobutyl-2′-methyl-1′-[[1-(2-methylsulfonylethyl)pyrazol-4-yl]methyl]spiro[4,5-dihydrothieno[2,3-c]pyran-7,4′-piperidine]] | < 100 nM
C[C@H]1C[C@@]2(CCN1Cc1cnn(CCS(C)(=O)=O)c1)OCCc1cc(C3CC3)sc12 [Compound 1034, (2′S, 7R)-2-cyclopropyl-2′-methyl-1′-[[1-(2-methylsulfonylethyl)pyrazol-4-yl]methyl]spiro[4,5-dihydrothieno[2,3-c]pyran-7,4′-piperidine]] | < 100 nM
C[C@H]1C[C@@]2(CCN1Cc1cnn(CCS(C)(=O)=O)c1)OCCc1cc(C#N)sc12 [Compound 1035, (2′S,7R)-2′-methyl-1′-[[1-(2-methylsulfonylethyl)pyrazol-4-yl]methyl]spiro[4,5-dihydrothieno[2,3-c]pyran-7,4′-piperidine]-2-carbonitrile] | < 100 nM
CCc1cc2c(s1)[C@]1(CCN(Cc3cn(CCS(C)(=O)=O)nn3)[C@@H](C)C1)OCC2 [Compound 1036, (2′S, 7R)-2-ethyl-2′-methyl-1′-[[1-(2-methylsulfonylethyl)triazol-4-yl]methyl]spiro[4,5-dihydrothieno[2,3-c]pyran-7,4′-piperidine]] | < 100 nM
CCc1cc2c(s1)[C@]1(CCN(Cc3cnn(CCS(C)(=O)=O)c3)[C@@H](C)C1)OCC2O (stereo partly drawn) [Compound 1037, (2′S, 7R)-2-ethyl-2′-methyl-1′-[[1-(2-methylsulfonylethyl)pyrazol-4-yl]methyl]spiro[4,5-dihydrothieno[2,3-c]pyran-7,4′-piperidine]-4-ol] | < 100 nM
CCc1cc2c(s1)[C@]1(CCN(Cc3cn(CCS(C)(=O)=O)nn3)[C@@H](C)C1)OCC2O (stereo partly drawn) [Compound 1038, (2′S,7R)-2-ethyl-2′-methyl-1′-[[1-(2-methylsulfonylethyl)triazol-4-yl]methyl]spiro[4,5-dihydrothieno[2,3-c]pyran-7,4′-piperidine]-4-ol] | < 100 nM
